Experimental data taken from patent US20080269325A1, “Methods to Relieve Pain” (Imperial Innovations Limited, priority 2004, published 2008).

How the values were obtained:
FAAH = biological target: T1, FAAH (Rattus norvegicus, UniProt P97612); assay: Inhibition of FAAH catalysed [3H]-AEA hydrolysis; format: biochemical; conditions: for IC50: FAAH catalysed [3H]-AEA hydrolysis, read-out: pI50 (converted)
T1 sequence (P97612 1-579): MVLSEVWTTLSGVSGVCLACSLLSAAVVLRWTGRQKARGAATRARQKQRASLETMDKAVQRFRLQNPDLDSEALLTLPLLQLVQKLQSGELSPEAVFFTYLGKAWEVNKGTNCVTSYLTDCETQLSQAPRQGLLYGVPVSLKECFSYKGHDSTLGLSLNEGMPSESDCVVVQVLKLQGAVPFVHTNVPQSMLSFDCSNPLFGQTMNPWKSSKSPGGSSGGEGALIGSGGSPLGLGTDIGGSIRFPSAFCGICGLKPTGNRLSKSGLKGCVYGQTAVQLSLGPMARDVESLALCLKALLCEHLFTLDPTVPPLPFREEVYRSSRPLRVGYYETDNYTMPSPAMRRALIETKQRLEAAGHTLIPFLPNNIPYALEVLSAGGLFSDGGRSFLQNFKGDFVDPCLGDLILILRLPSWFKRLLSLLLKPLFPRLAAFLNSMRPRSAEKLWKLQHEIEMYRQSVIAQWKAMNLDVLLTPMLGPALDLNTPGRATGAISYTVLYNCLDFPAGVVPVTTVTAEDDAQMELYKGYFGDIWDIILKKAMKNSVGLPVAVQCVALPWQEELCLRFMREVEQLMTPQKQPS
Method: (§1) The FAAH inhibitory compound that we are investigating is an analogue of PEA called palmitoylallylamide (L-29). It was developed by Dr Didier Lambert and team at the Unité de Chimie pharmaceutique et de Radiopharmacie, Universite catholique de Louvain, Brussels, Belgium. The capacity of L-29 to inhibit FAAH was calculated by measuring the ability of the compound to inhibit FAAH catalysed [^3H]-AEA hydrolysis (maximum inhibition and pI50 calculated). […] Binding to CB1 and CB2 receptors was also calculated by measuring the displacement of radioactive [^3H]-CP55,940 from a cell line transfected with CB1 receptors and radioactive [^3H]-WIN55,212-2 from a cell line transfected with CB2 receptors.

CB1 receptors = biological target: T2, CB1 receptors (Homo sapiens, UniProt P21554); assay: Displacement of [3H]-CP55,940 from a cell line transfected with CB1 receptors; format: binding; conditions: concentration of 10 μM
T2 construct: expressed in transfected cells
Method: as §1

CB2 receptors = biological target: T3, CB2 receptors (Homo sapiens, UniProt P34972); assay: Displacement of [3H]-WIN55,212-2 from a cell line transfected with CB2 receptors; format: binding; conditions: concentration of 10 μM
T3 construct: expressed in transfected cells
Method: as §1

[1] = test system: formalin-evoked pain in the rat; assay: Formalin test (CPS-WST(0,1,2) pain score); format: in vivo
Method: All experiments conformed with British Home Office regulations. Male Wistar rats weighing 230-290 g were obtained from B&K. Animals were housed in group cages and maintained on a 12-hour light-dark cycle with ad libitum access to food and water. Each animal was used in one experiment only.
L-29 was a gift from D Lambert (see FIG. 1 for chemical structure). SR1 and SR2 were a gift from Sanofi and capsazepine was purchased from Tocris. All drugs were dissolved in 40% dimethyl sulphoxide (DMSO) and saline.
Rats were randomised into seven groups. Investigator JB carried out the dosing of the animals to conform with Home Office regulations, while investigator HJ carried out all other duties including scoring the behavioural test, she was blinded to the drugs given. All animals were acclimatised to the testing environment for at least 30 min prior to the experiment beginning. Each animal received a first intraperitoneal (i.p.) injection of either vehicle or antagonist and five minutes later a second i.p. injection of either vehicle or L-29. […] 10 min later all the animals received a formalin injection.
50 μl of 2.5% formalin was injected subcutaneously into the dorsum of the right hind paw via a 27G needle. The paw was then marked with permanent ink. The animal was immediately replaced in the observation chamber, a clear plexiglass box measuring 23 cm×18 cm×14 cm, with a mirror positioned underneath at 45° to allow an unobstructed view of the paw. Observations began as the rats were placed in the box and continued for 60 min. Their behaviour was rated according to the Composite Pain Score, Weighted Scores Technique (CPS-WST (0,1,2)), a validated pain behaviour scoring system for the rat formalin test (Watson et al 1997). The amount of time spent in each of 2 behavioural categories was measured for each consecutive 5 min period within the hour scored. Category 1, the injected paw is elevated and not in contact with any surface and category 2, the injected paw is licked, bitten or shaken. A weighted score was then obtained for each 5 min period and for phase 1 (0-15 min) and phase 2 (15-60 min), by using the formula below:
CPS-WST=(1×time in category 1)+(2×time spent in category 2)
Data was analysed using the one-way ANOVA test followed by Dunnett's test using the SigmaStat 2.3 computer package.

[2] = test system: rats rendered neuropathic by partial sciatic nerve ligation; assay: Thermal hyperalgesia (Hargreaves' device), partial sciatic nerve ligation model; format: in vivo, rat
Method: (§2) Male Wistar rats, weighing 250-350 g (mean 300 g) were housed at a constant temperature under a 14:10 light/dark cycle, with free access to food and water.
(§3) The animals were randomised into four experimental groups, with six animals in each group:
(§4) Group B. L-29 in a DMSO Vehicle in Three i.p. Doses: 0.1 mgkg^−1, 1 mgkg^−1, 10 mgkg^−1
(§5) In this study, six animals were allocated to each dose group and baseline limb withdrawal thresholds were recorded for each animal at t=0. This was immediately followed by the ip. administration of L-29 solution.
(§6) Limb withdrawal thresholds to all three modalities were recorded at t=0. Each animal then received i.p. injection of the antagonist in a 40% DMSO and saline solution, immediately followed by the administration of L-29 at a dose of 1 mgkg^−1 via the same route. Sensory testing resumed and limb withdrawal thresholds were recorded over the course of the experiment as described.
(§7) Following the original description for partial sciatic nerve ligation by Seltzer et al.^2, surgery was performed in equal number. Under inhalational anaesthesia using isoflurane and nitrous oxide, the left sciatic nerve was exposed at upper-thigh level and the dorsal third—half of the sciatic nerve tightly ligated with a 7-0 silk suture at a site just distal to the point at which the posterior biceps semitendinosus nerve branches off the sciatic nerve. Haemostasis was confirmed and the wound then closed with muscle and skin sutures and a small volume of 0.5% bupivicaine administered subcutaneously. A strict aseptic technique was maintained throughout. The animal was then recovered and returned to its housing environment and a post-operative check conducted the following day. See FIG. 12 for full description and protocol.
Behavioural tests included simple reflex withdrawal to mechanical, thermal and cold stimuli. […] Baseline sensory thresholds were measured pre-operatively on the day of surgery and on post-operative day eight. […] Sensory thresholds were recorded at time (t) 0, 20, 40, 60 and 80 minutes post drug administration.
Thermal hyperalgesia is assessed using a noxious infrared heat stimulus applied to the plantar surface of both hind paws as described by Hargreaves et al.^4 Paw withdrawal thresholds to a focused beam of radiant heat at a constant temperature of 46° C. and infrared intensity (of twenty for rats and thirty for mice) is measured. […] Sampling is repeated five times to each paw with three minutes between testing and a mean withdrawal threshold is calculated.
(§8) Statistical significance was determined for neuropathy by the paired t-test and for drug effects by the one-way ANOVA (Dunnett's test) (compared to post-operative values), both taking p<0.05 as statistically significant.

[3] = test system: rats rendered neuropathic by partial sciatic nerve ligation; assay: Mechanical allodynia (electronic von Frey), partial sciatic nerve ligation model; format: in vivo, rat
Method: as §2, §3, §4, §5, §6, §7
Behavioural tests included simple reflex withdrawal to mechanical, thermal and cold stimuli. Before commencing experiments, animals were allowed to acclimatise to the testing environment for at least 15 minutes until exploratory behaviour had ceased. In order to minimise bias, the experiment to be conducted was randomised (according to a predetermined random number table—see table 2) on the day of testing and the drug doses were drawn up and given by a separate investigator to the one scoring the behavioural tests who was blinded to the drugs given. Baseline sensory thresholds were measured pre-operatively on the day of surgery and on post-operative day eight. […] Sensory thresholds were recorded at time (t) 0, 20, 40, 60 and 80 minutes post drug administration. […]
as §8

[4] = test system: rats rendered neuropathic by partial sciatic nerve ligation; assay: Cold allodynia (acetone drop), partial sciatic nerve ligation model; format: in vivo, rat; conditions: for positive response to cold stimulus (declined from 100%): between 40-60 minutes post drug
WIN2 induced catalepsy = conditions: 1 mg/kg i.p.; cited from earlier work
[5] = antagonist 1 mgkg^−1 i.p. + L-29 1 mgkg^−1 i.p.

T3 sequence (P34972 whole entry): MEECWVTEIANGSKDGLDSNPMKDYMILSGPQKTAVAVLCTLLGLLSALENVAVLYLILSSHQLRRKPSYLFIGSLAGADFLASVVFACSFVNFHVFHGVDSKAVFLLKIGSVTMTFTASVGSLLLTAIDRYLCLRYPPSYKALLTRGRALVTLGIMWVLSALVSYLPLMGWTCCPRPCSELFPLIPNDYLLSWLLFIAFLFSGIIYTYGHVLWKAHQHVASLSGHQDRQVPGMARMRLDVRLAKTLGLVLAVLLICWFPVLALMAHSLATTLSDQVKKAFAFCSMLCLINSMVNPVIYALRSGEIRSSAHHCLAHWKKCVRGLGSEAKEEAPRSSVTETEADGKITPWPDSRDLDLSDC
T2 sequence (P21554 whole entry): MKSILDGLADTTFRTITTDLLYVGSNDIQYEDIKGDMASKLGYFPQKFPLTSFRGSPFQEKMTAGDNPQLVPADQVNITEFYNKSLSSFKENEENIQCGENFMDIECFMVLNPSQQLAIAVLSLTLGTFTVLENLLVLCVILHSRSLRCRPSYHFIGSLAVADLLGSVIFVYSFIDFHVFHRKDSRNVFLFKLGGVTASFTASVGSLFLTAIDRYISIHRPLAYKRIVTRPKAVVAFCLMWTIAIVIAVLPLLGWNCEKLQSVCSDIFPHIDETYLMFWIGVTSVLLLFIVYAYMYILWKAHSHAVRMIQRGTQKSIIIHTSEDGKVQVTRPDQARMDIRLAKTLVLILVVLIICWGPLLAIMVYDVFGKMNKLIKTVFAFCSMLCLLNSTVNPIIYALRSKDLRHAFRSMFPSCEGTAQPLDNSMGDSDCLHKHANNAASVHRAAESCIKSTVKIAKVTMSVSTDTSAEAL

## C=CCNC(=O)CCCCCCCCCCCCCCC [L-29, N-(2-propenyl)hexadecanamide]
FAAH
  maximum inhibition of FAAH catalysed [3H]-AEA hydrolysis: 67%
  IC50: 3.39 µM
CB1 receptors
  displacement of [3H]-CP55,940 in the CB1 assay: 13.3%
CB2 receptors
  displacement of [3H]-WIN55,212-2 in the CB2 assay: 7.8%
[1]; 0.1 mg/kg i.p.
  pain behaviour v control: not significantly different from control
[1]; 1 mg/kg i.p.
  pain behaviour v control (P<0.05): significantly attenuated pain behaviour
[1]; 10 mg/kg i.p.
  pain behaviour v control (P<0.05): significantly attenuated pain behaviour
[1]; 0.1, 1 and 10 mg/kg i.p., 10 min before 2.5% formalin s.c.
  pain behaviour in both phases of the formalin test: dose-dependently inhibited
[2]; 0.1 mgkg^−1 i.p.
  attenuation of thermal hyperalgesia: only at 40 minutes
[2]; 1 mgkg^−1 i.p.
  attenuation of thermal hyperalgesia: attenuated later between 40 and 60 minutes post drug injection
[2]; 10 mgkg^−1 i.p., between 20 and 60 minutes post drug
  attenuation of thermal hyperalgesia: Attenuation of thermal hyperalgesia was greatest
[3]; 0.1 mgkg^−1 i.p.
  reversal of mechanical allodynia: only at 80 minutes post i.p drug administration
[3]; 1 mgkg^−1 i.p., at 20 minutes and 60 minutes post drug
  reversal of mechanical allodynia (mechanical sensory thresholds): significant increase in mechanical sensory thresholds
[3]; 10 mgkg^−1 i.p.
  reversal of mechanical allodynia: No effect on mechanical allodynia
[4]; 0.1 mgkg^−1 i.p., between 20-40 minutes
  decline in positive response to cold stimulus: decline by almost half
[4]; 1 mgkg^−1 i.p.
  positive response to cold stimulus (declined from 100%): 50%
[4]; 10 mgkg^−1 i.p.
  positive response to cold stimulus (declined from 100%): 50%
[4]; all doses (0.1, 1, 10 mgkg^−1 i.p.)
  reversal of cold allodynia: did not yield a statistically significant reversal of cold allodynia

## CCCCCCCCCCCCCCCC(=O)NCCO [PEA, Palmitoylethanolamide, reference compound]
FAAH
  maximum inhibition of FAAH catalysed [3H]-AEA hydrolysis: 78%
  IC50: 5.01 µM
CB1 receptors
  displacement of [3H]-CP55,940 in the CB1 assay: 23.8%
CB2 receptors
  displacement of [3H]-WIN55,212-2 in the CB2 assay: 13.9%

## Cc1c(C(=O)NN2CCCCC2)nn(-c2ccc(Cl)cc2Cl)c1-c1ccc(Cl)cc1 [SR1, reference compound]
[1]; phase 2 (15-60 min), antagonist 1 mg/kg i.p. prior to 1 mg/kg L-29
  effect of receptor antagonist on antinociceptive effect of L-29: reverses the antinociceptive effect of L-29
[2]; [5]
  effect of co-administered antagonist on anti-hyperalgesic effect of L-29 (thermal): appeared not to prevent the anti-hyperalgesic and anti-allodynic effects
[3]; [5]
  effect of co-administered antagonist on anti-allodynic effect of L-29 (mechanical): appeared not to prevent the anti-hyperalgesic and anti-allodynic effects
[4]; [5]
  cold allodynia on co-administration of antagonist and L-29: significant reduction in % positive response to cold stimulus
WIN2 induced catalepsy
  time to significant antagonism of WIN2 induced catalepsy: ≤ 15 min

## Oc1cc2c(cc1O)CN(C(=S)NCCc1ccc(Cl)cc1)CCC2 [capsazepine, reference compound]
[1]; either phase, SR2 1 mg/kg or capsazepine 10 mg/kg i.p. prior to 1 mg/kg L-29
  effect of receptor antagonist on antinociceptive effect of L-29: do not significantly reverse the antinociceptive effect of L-29
